The record followed here is patent US7300917B2, “Remedy for chronic disease” (Ono Pharmaceuticals Co., Ltd., priority 2002, dated 2007).

What all share (type): cell-based
Assay [1] has as its system human prostate stroma cells. As to the kind of experiment: Inhibition by an EDG-2 antagonist of LPA-dependent proliferation of human prostate stroma cells (BrdU uptake). The following applies: LPA 1 μM; test compound 1 nM to 10 μM; 24 hours; FIG. 2-4. On the procedure:
To an MEM-α medium containing 10% FBS (fetal bovine serum), gentamicin (50 μg/ml), amphortercin B (50 ng/mL) and human bFGF and human insulin)(GIBCO Inc.) was added PrSC 5685 in a concentration of 1×10^4 cells/well in a 96-well plate and the mixture was cultured for 24 hours. Afterwards, it was washed with Hanks solution twice and the medium was exchanged with a serum-free medium (MEM-α containing gentamicin (50 μg/ml) and amphotercin B (50 ng/ml)) and cultured for another 24 hours. Thereto was added LPA (final concentration: 1 nM-10 μM) and at the same time was added BrdU and the mixture was cultured for 24 hours. The same amount of physiological saline was added in place of LPA as a control.
Uptaking of BrdU was measured by using cell proliferation ELISA kit (Amersham Inc.). Specifically, the cells were treated with BrdU and the cultured serum was discarded and to each well was added a cell anchorage/DNA denaturation solution (150 μl) and the mixture was allowed to stand for 30 minutes. The cell anchorage/DNA denaturation solution was removed and to the mixture was added Blocking buffer (150 μl) and the mixture was allowed to stand for another 30 minutes. Next the Blocking buffer was removed and thereto was added anti-BrdU antibody solution (100 μL) labeled with peroxidase and the mixture was allowed to stand for 30 minutes. Next the antibody solution was removed and the mixture was washed with Wash buffer (PBS(−); 150 μl) three times, moisture was removed enough by tapping and thereto was added a solution of a reaction substance (3,3′,5,5′,-tetramethylbenzidine, TMB 15% solution in DMSO; 100 μL). Thereto was added 2N solution of sulfuric acid (25 μL) and the absorbance was measured at 450 nm by microplate reader SPECTRAMAXPRO.
Human-prostate stroma cells were cultured by the method described in example 2, just before adding LPA the test compound (final concentration: 1 nM to 10 μM) were added. […] After adding LPA was added BrdU and it was cultured for another 24 hours and the uptaking activity of BrdU was measured.

The test system of assay [2] is mouse precursor fat cells (3T3-L1). Nature of the assay: Inhibition by an EDG-2 antagonist of LPA-dependent proliferation of mouse precursor fat cells (BrdU uptake). The following applies: compound 0.001 μM-10 μM, FIG. 9-10. On the procedure: Proliferating activity of mouse precursor fat cells by LPA was measured by BrdU uptaking activity of the cells (3T3-L1). In a medium containing serum (DMEM/10% FBS (50 μg/mL); gentamicin (50 ng/mL); amphotericin B) the cells were suspended and the suspension was sowed in a concentration of 1×10^4 cells/well in a 96-well plate and it was cultured for 24 hours, and then it was washed with Hanks solution (150 μL) twice and the medium was exchanged with serum-free medium (DMEM (50 μg/mL); gentamicin (50 ng/mL); amphotericin B) and it was cultured for another 24 hours. Thereto was added the compound (b) or compound (c) in a final concentration of 0.001 μM-10 μM and 20 hours later thereto was added BrdU and 24 hours later, the uptaking of BrdU was measured.

In assay [3] the test system is human synovial cells (HFLS). As to the kind of experiment: Inhibition by an EDG-2 antagonist of LPA-dependent proliferation of human synovial cells (BrdU uptake). The following applies: LPA 3 μM, compound 0.001 μM-10 μM, FIG. 11-12. On the procedure:
Proliferating activity of human synovial cells by LPA was measured by BrdU uptaking activity of the cells (HFLS CELL APPLICATION Inc.). In a medium containing serum (Synoviocyte Basal Medium/Synoviocyte Growth Supplement) the cells were suspended and they were sowed in a collagen-coated 96-well plate in a concentration of 1×10^4 cells/well and 24 hours after it was washed with Hanks solution (150 μl) twice and the medium was exchanged with serum-free medium (Synoviocyte Basal Medium) in a volume of 100 μL/well and it was cultured for 24 hours. The compound (b) or compound (c) (each in a concentration of 0.001 μM-10 μM) was simultaneously added with LPA (in a concentration of 3 μM) and 18 hours after, thereto was added BrdU and the uptaking of BrdU was measured.

The target of a further assay is T1, human EDG-2 (Homo sapiens, UniProt Q92633).
T1 construct: expressed in transfected cells; host or cells: Chinese hamster ovary (CHO) cells
Nature of the assay: Evaluation of EDG-2 antagonistic activity by monitoring the change of intracellular calcium ion concentration. The following applies: CHO cells overexpressing human EDG-2; inhibition of intracellular calcium increase by LPA (100 nM); Fura2. The method, then:
Chinese hamster ovary (CHO) cells which overexpressed human EDG-2 gene were cultured in Ham's F12 medium (GIBCO BRL) containing 10% FBS (fetal bovine serum), penicillin/streptomycin and blasticidin (5 μg/ml). Thus cultured cells were incubated in Fura2 (5 μM)-AM solution [Ham's F12 medium containing FBS (10%), HEPES buffer (20 mM, pH 7.4) and probenecid (2.5 mM)]. Next, it was washed with Hanks solution containing HEPES buffer (20 mM, pH 7.4) and probenecid (2.5 mM) once, and immersed into the Hanks solution. Plates were set in fluorescent drug screening system and intracellular calcium ion concentration was measured for 30 seconds with no stimulation. Five minutes after adding thereto a compound to be tested (final concentration: 1 nM to 10 μM, in dimethylsulfoxide (DMSO) solution), the increase of intracellular calcium ion concentrations before and after the addition of LPA (excitation wave length: […]; fluorescent wave length: 500 nm) were measured every 3 seconds. 1-oleoyl (18:1)-LPA (Sigma) or 1-linolenoyl (18:3)-LPA was used as LPA. 1-linolenoyl (18:3)-LPA was synthesized and purified by either of the following two methods. […]
(A change in cytosolic calcium serves as a functional read-out for many receptors and channels.)

Assay [4] concerns human airway smooth muscle cells. Nature of the assay: Inhibition by an EDG-2 antagonist of LPA-dependent proliferation of human airway smooth muscle cells (BrdU uptake). The following applies: LPA 3 μM; test compound 1 nM-10 μM; 6 hours; FIG. 6-7. On the procedure:
BSMC was sowed to an MEM-α medium (GIBCO) containing 10% FBS (fetal bovine serum), gentamicin (50 μg/ml), amfortercin B (50 ng/ml), human bFGF and human insulin in a concentration of 1×10^4 cells/well in a 96-well plate and the mixture was cultured for 24 hours. Afterwards, it was washed with Hanks solution twice, and the medium was exchanged with a serum-free medium (an MEM-α containing gentamicin (50 μg/ml) and amphortecin B (50 ng/ml)) and the mixture was cultured for another 24 hours. Thereto was added LPA (final concentration: 3 nM-10 μM) and simultaneously was added BrdU and the mixture was cultured for another 6 hours. The same amount of physiological saline was added as a control in place of LPA.
Uptaking of BrdU was measured by using cell proliferation ELISA kit (Amersham Inc.). Specifically, the cells were treated with BrdU and the cultured serum was discarded and to each well was added a cell anchorage/DNA denaturation solution (150 μl) and the mixture was allowed to stand for 30 minutes. […] Thereto was added 2N solution of sulfuric acid (25 μL) and the absorbance was measured at 450 nm by microplate reader SPECTRAMAXPRO.
By the method shown in example 4 BSMC was cultured and the test compound (final concentration: 1 nM-10 μM) was added just before adding LPA. […] After adding LPA, BrdU was added and it was cultured for 6 hours and the uptaking activity of BrdU was measured.

The structures appear in SMILES notation. “Also recorded” adds a separate entry of the source.

T1 sequence (Q92633 whole entry): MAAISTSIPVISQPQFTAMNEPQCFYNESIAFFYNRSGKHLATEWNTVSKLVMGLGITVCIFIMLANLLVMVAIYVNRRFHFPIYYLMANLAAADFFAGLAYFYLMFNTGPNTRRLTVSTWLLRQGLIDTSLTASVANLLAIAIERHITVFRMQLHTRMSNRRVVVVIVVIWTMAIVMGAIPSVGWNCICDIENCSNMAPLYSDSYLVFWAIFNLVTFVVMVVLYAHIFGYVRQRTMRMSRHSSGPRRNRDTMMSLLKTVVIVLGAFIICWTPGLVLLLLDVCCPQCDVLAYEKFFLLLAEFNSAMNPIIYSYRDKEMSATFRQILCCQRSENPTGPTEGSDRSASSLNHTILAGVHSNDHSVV

Regarding `COc1cc(C(=O)N(CCCc2ccccc2)Cc2ccc(-c3ccccc3CC(=O)O)cc2)cc(OC)c1OC` [compound (c), (4′-{[(3-phenylpropyl)(3,4,5-trimethoxybenzoyl)amino]methyl}-2-biphenylyl)acetic acid], in assay [1], the “inhibition of proliferation of human prostate stroma cells by LPA stimulation (BrdU uptaking activity)” value was “suppresses the proliferation effect of normal human prostate stroma cells by LPA, depending on the concentration”. Also, in assay [2], the “inhibition of proliferation of mouse precursor fat cells by LPA stimulation (BrdU uptaking activity)” value is reported as “inhibits the proliferation effect of normal human precursor fat cells induced by LPA depending on the concentration; also recorded: inhibited the proliferation of mouse precursor fat cells by LPA stimulation depending on the concentration”. Also, in assay [3], the “inhibition of proliferation of human synovial cells by stimulation of LPA (BrdU uptaking activity)” value (“inhibition … of LPA (BrdU uptaking activity)” below) is reported as “inhibits the proliferation effect of normal human synovial membrane depending on the concentration”. In addition, at human EDG-2, the IC50 is 190 nM.

Take `COc1ccc(OC)c(CCN(CCC(=O)O)C(=O)c2ccccc2-c2ccccc2C(=O)NCc2cccnc2)c1.Cl` [compound (a), 3-(N-((2-(2-((pyridin-3-ylmethylamino)carbonyl)phenyl)phenyl)carbonyl)-N-(2-(2,5-dimethoxyphenyl)ethyl)amino)propanoic acid hydrochloride]: in assay [4], the “inhibition of proliferation of human airway smooth muscle cells by LPA stimulation (BrdU uptaking activity)” value is “suppresses the proliferation effect of normal human airway smooth muscle cells by LPA, depending on the concentration”. In addition, the “inhibition of proliferation of human prostate stroma cells by LPA stimulation (BrdU uptaking activity)” value in assay [1] is “suppresses the proliferation effect of normal human prostate stroma cells by LPA, depending on the concentration”. Also, the “inhibition … of LPA (BrdU uptaking activity)” value in assay [3] is “inhibited the proliferation of human synovial cells by stimulation of LPA”.

`COC(=O)CCSCc1ccc(-c2onc(C)c2NC(=O)OC(C)c2ccccc2Cl)cc1` (stereo not drawn) [compound (b), methyl 3-({4-[4-({[1-(2-chlorophenyl)ethoxy]carbonyl}amino)-3-methyl-5-isoxazolyl]benzyl}sulfanyl)propanoate, reference compound]: in assay [4], the “inhibition of proliferation of human airway smooth muscle cells by LPA stimulation (BrdU uptaking activity)” value is given as “inhibits the proliferation effect of normal human airway smooth muscle cells induced by LPA depending on the concentration”. Also, the “inhibition of proliferation of human prostate stroma cells by LPA stimulation (BrdU uptaking activity)” value in assay [1] is “suppresses the proliferation effect of normal human prostate stroma cells by LPA, depending on the concentration”. Besides, in assay [2], the “inhibition of proliferation of mouse precursor fat cells by LPA stimulation (BrdU uptaking activity)” value is recorded as “inhibits the proliferation effect of normal human precursor fat cells induced by LPA depending on the concentration; also recorded: inhibited the proliferation of mouse precursor fat cells by LPA stimulation depending on the concentration”. The “inhibition … of LPA (BrdU uptaking activity)” value in assay [3] was “inhibits the proliferation effect of normal human precursor fat cells depending on the concentration; also recorded: inhibited the proliferation of human synovial cells by stimulation of LPA”. For the same compound, the IC50 at human EDG-2 is 1500 nM.

What is called IC50 is the midpoint of a concentration-inhibition curve.
